Measured values taken from ChEMBL document CHEMBL1158620, “Synthesis and evaluation of novel alpha-amino cyclic boronates as inhibitors of HCV NS3 protease” (Bioorg Med Chem Lett, 2010).

Columns and labels:
Hepatitis C virus [1] = assay: Antiviral activity against HCV 1a by cell based replicon assay; assay type: functional, organism-based, Hepacivirus hominis; settings: subtype 1a
Hepatitis C virus [2] = assay: Inhibition of HCV 1a NS3/4A protease by FRET assay; assay type: functional, Hepatitis C virus subtype 1a; settings: for IC50: Hepatitis C virus
Hepatitis C virus [3] = assay: Antiviral activity against HCV 1b by cell based replicon assay; assay type: functional, organism-based, Hepacivirus hominis; settings: genotype 1b

Row | Structure (SMILES) | EC50 (Hepatitis C virus [1]) [µM] | IC50 (Hepatitis C virus [2]) [µM] | EC50 (Hepatitis C virus [3]) [µM] | Ki (Hepatitis C virus [2]) [µM]
1 | CC(C)(C)[C@H](NC(=O)[C@@H](NC(=O)c1cnccn1)C1CCCCC1)C(=O)N1C[C@@H]2CCC[C@@H]2[C@H]1C(=O)N[C@H]1CCOB1O | > 1 | 0.12 | > 1 | –
2 | CCC[C@H](NC(=O)[C@@H]1[C@H]2CCC[C@H]2CN1C(=O)[C@@H](NC(=O)[C@@H](NC(=O)c1cnccn1)C1CCCCC1)C(C)(C)C)C(=O)C(=O)NC1CC1 | – | 0.1 | – | 0.044
3 | CC(C)(C)[C@@H](NC(=O)OC1CCCC1)C(=O)N1C[C@H](Oc2nccc3ccccc23)C[C@H]1C(=O)N[C@@H]1B(O)OC[C@@H]1C1CC1 | > 1 | 1.93 | > 1 | –
4 | CC(C)(C)[C@H](NC(=O)OC1CCCC1)C(=O)N1C[C@H](OC(=O)N2Cc3cccc(F)c3C2)C[C@H]1C(=O)N[C@@H]1CCOB1O | > 1 | 5.31 | > 1 | –
5 | CC(C)(C)[C@@H](NC(=O)OC1CCCC1)C(=O)N1C[C@H](Oc2nccc3ccccc23)C[C@H]1C(=O)N[C@@H]1CCOB1O | > 1 | 2.75 | > 1 | –
6 | CC(C)(C)NC(=O)N[C@H](C(=O)N1C[C@H]2[C@@H]([C@H]1C(=O)N[C@H]1CCOB1O)C2(C)C)C(C)(C)C | > 1 | 0.34 | > 1 | –
7 | CC(C)(C)[C@H](NC(=O)OC1CCCC1)C(=O)N1C[C@H](OC(=O)N2Cc3cccc(F)c3C2)C[C@H]1C(=O)N[C@H]1CCOB1O | > 1 | 0.023 | > 1 | –
8 | CC(C)(C)[C@@H](NC(=O)OC1CCCC1)C(=O)N1C[C@H](Oc2nccc3ccccc23)C[C@H]1C(=O)NC1CCCOB1O (stereo not given in full) | > 1 | 0.73 | > 1 | –

The remaining compounds from weak to strong by IC50 (Hepatitis C virus [2]), led by results:

Row | EC50 (Hepatitis C virus [1]) [µM] | IC50 (Hepatitis C virus [2]) [µM] | EC50 (Hepatitis C virus [3]) [µM] | Structure (SMILES) | Ki (Hepatitis C virus [2]) [µM]
9 | > 1 | 8.5 | > 1 | CC(C)(C)[C@H](NC(=O)OC1CCCC1)C(=O)N1C[C@H](OC(=O)N2Cc3cccc(F)c3C2)C[C@H]1C(=O)N[C@H]1COB(O)C1 | –
10 | > 1 | 4.47 | > 1 | C[C@H]1[C@H](C)OB(O)[C@H]1NC(=O)[C@@H]1C[C@@H](OC(=O)N2Cc3cccc(F)c3C2)CN1C(=O)[C@@H](NC(=O)OC1CCCC1)C(C)(C)C | –
11 | > 1 | 0.34 | > 1 | C[C@H]1C[C@H](NC(=O)[C@@H]2C[C@@H](OC(=O)N3Cc4cccc(F)c4C3)CN2C(=O)[C@@H](NC(=O)OC2CCCC2)C(C)(C)C)B(O)O1 | –
12 | > 1 | 0.33 | > 1 | CC[C@H]1COB(O)[C@H]1NC(=O)[C@@H]1C[C@@H](OC(=O)N2Cc3cccc(F)c3C2)CN1C(=O)[C@@H](NC(=O)OC1CCCC1)C(C)(C)C | –
13 | > 1 | 0.32 | > 1 | CC(C)(C)[C@H](NC(=O)OC1CCCC1)C(=O)N1C[C@H](OC(=O)N2Cc3cccc(F)c3C2)C[C@H]1C(=O)NC1CCCOB1O (stereo not given in full) | –
14 | > 1 | 0.2 | > 1 | CC(C)(C)[C@H](NC(=O)OC1CCCC1)C(=O)N1C[C@H](OC(=O)N2Cc3cccc(F)c3C2)C[C@H]1C(=O)N[C@@H]1B(O)OC[C@@H]1C1CC1 | –
15 | > 1 | 0.17 | > 1 | CC(C)(C)[C@@H](NC(=O)OC1CCCC1)C(=O)N1C[C@H](Oc2nccc3ccccc23)C[C@H]1C(=O)NC1CCCCOB1O (stereo not given in full) | –
16 | > 1 | 0.12 | > 1 | CC(C)(C)[C@@H](NC(=O)OC1CCCC1)C(=O)N1C[C@H](Oc2nccc3ccccc23)C[C@H]1C(=O)N[C@H]1CCOB1O | –
17 | > 1 | 0.024 | > 1 | CC(C)(C)[C@H](NC(=O)OC1CCCC1)C(=O)N1C[C@H](OC(=O)N2Cc3cccc(F)c3C2)C[C@H]1C(=O)NC1CCCCOB1O (stereo not given in full) | –
